Measurements published in US20180072675A1, “ANTIMICROBIAL PYRIDINOHYDRAZIDE AND HYDRAZOMETHYLPYRIDINE-BASED AGENTS” (Board of Supervisors of Louisiana State University and …, priority 2015, published 2018).
≈ marks a conversion by molar mass, not a printed value. Read-outs that look alike come from different tables or passages of the source. Values belong to the compound of their own block, whether it stands above or below them.

Assays:
[1] = test system: C. albicans clinical isolate 1 (TW1); assay: MIC80 fungal growth inhibition, clinical isolate TW1; assay type: cell-based, Candida albicans; details: for MIC80: Candida albicans, read-out: MIC80 TW1
Protocol: (§1) The antifungal activity of the pyridinohydrazide and hydrazomethylpyridine derivatives described in the s were evaluated in vitro using Candida albicans (ATCC Accession No. 10231) and Candida glabrata (ATCC Accession No. 48435). In addition, the compounds were evaluated for activity against two previously-described clinical isolates of C. albicans known to have developed azole-resistance. These isolates were obtained over a two year period from a single AIDS patient and the development of the azole-resistance mechanisms have been extensively characterized (White T C. Antimicrob. Agents Chemother. (1997) 41: 1482-1487). MIC assays were performed on the clinical isolates 1 and 17 (annotated TW1 and TW17, respectively), where isolate 1 was used as an azole-susceptible control and isolate 17 was considered azole-resistant. All assays were done in accordance with NCCLS reference documents (Clinical Laboratory and Standards Institute. Reference method for Broth Dilution Antifungal Susceptibility Testing of Yeasts: Approved Standard. M27-A3 2010; 28). The results of these screenings are summarized in Tables 1-9 (Examples 20-27) as the minimum concentrations that inhibited more than 80% of fungal growth (MIC80) as compared to positive controls containing 1% DMSO. Assays were performed in HEPES-buffered RPMI-1640 media. All MIC screens used a visual scoring method as opposed to spectroscopic analysis, due to the altered absorbance spectra of many of the compounds.

[2] = test system: Candida albicans (ATCC Accession No. 10231); assay: MIC80 fungal growth inhibition, C. albicans ATCC 10231; assay type: cell-based; details: for MIC80: Candida albicans
Protocol: as §1

[3] = test system: Candida albicans ATCC Accession No. 10231; assay: Checkerboard synergy assay with fluconazole; assay type: cell-based; details: for FIC Fluc: average FIC of fluconazole at varying concentrations of the test drug; for FIC Test: average FIC of the test drug at varying concentrations of fluconazole; for Activity (interaction with fluconazole): from FIC index; for FIC Index: sum of the two FICs, <1 synergistic, >=1 antagonistic
Protocol: Considering that two different modes of activity (cidal and static) were observed depending on the structural motifs present in our analogs, we performed a series of checkerboard assays to determine if representative active compounds were in fact acting in synergy with the azole, fluconazole. Each of these assays tested multiple concentrations of the selected analog in the presence of multiple concentrations of fluconazole. All checkerboard assays were prepared in 96-well plates. 200 μl of previously prepared drug solutions were added to each well in column 2. Using a multichannel pipette, 100 μl from each well in column 2 was serially diluted (1:2) horizontally across the plate, stopping at column 10. Contents of each well were mixed thoroughly. Column 11 was reserved for fluconazole MIC control and contained no other drug. 100 μl of media was added to each well, column 2-10. Each well was mixed thoroughly with a multichannel pipette. 100 μl was then removed and discarded from these wells. 100 μl of previously prepared fluconazole dilution was added to each well in row B. Using a multichannel pipette, 100 μl from each well was serially diluted (1:2) vertically down the plate, stopping at row F. Contents of each well were mixed thoroughly. Row G was reserved for tested drug MIC control and contained no fluconazole. Well G11 contained neither drug and served as a drug-free growth control. The final 100 μl from each well in row F was discarded.
The fungal samples were prepared from glycerol stocks of Candida albicans ATCC Accession No. 10231. The inoculum's concentration was adjusted to a McFarland standard between 0.08 and 0.12. Inoculum was then diluted at a ratio of 1:37.5 in buffered media. 100 μl of inoculum-media solution was added to each well. Following inoculation, the 96-well plates were wrapped in parafilm to prevent evaporation and incubated for overnight at 35° C. After 18 h, the wells showing growth were recorded.
Synergistic activity was determined based on the MIC read from these plates. The fractional inhibitory concentration (FIC) for a given well is the ratio of the minimum inhibitory concentration of one drug A in the presence another drug B to the minimum inhibitory concentration with only drug A. The FIC was calculated for the test drug in each of the wells along the growth/no-growth interface at varying concentrations of fluconazole, then these values were averaged to determine the average FIC for the test drug. The same process was used to calculate the average FIC for fluconazole at varying concentrations of the test drug. The sum of these two FICs gives the FIC index which can be used to determine the synergistic effect between the two drugs (Hsieh et al., Diagn. Microbiol. Infect. Dis. (1993) 16: 343-349). An FIC index value less than 1 indicated synergistic interactions between the two drugs while an FIC index value greater than or equal to 1 indicated antagonistic interactions.

[4] = Azole-susceptible, >80% growth inhibition, visual scoring
[5] = ATCC10231, Azole-susceptible, >80% growth inhibition, visual scoring, read-out: MIC80 C. albicans ATCC No. 10231

SMILES: O=C(NN=Cc1cc([N+](=O)[O-])ccc1O)c1cccnc1 [AR12]
- MIC80 TW1 [1, 4]: 8 µg/mL (≈ 27.9 µM)
- MIC80 C. albicans ATCC No. 10231 [2, 4]: 4 µg/mL (≈ 14 µM)
- FIC Fluc [3]: 1.00
- FIC Test [3]: 1.00
- Activity (interaction with fluconazole) [3]: Antagonistic
- FIC Index [3]: 2.00

SMILES: O=C(NN=Cc1cc([N+](=O)[O-])ccc1O)c1ccncc1 [AR18]
- MIC80 TW1 [1, 4]: 8 µg/mL (≈ 27.9 µM)
- MIC80 C. albicans ATCC No. 10231 [2, 4]: 4 µg/mL (≈ 14 µM)
- FIC Fluc [3]: 1.00
- FIC Test [3]: 1.00
- Activity (interaction with fluconazole) [3]: Antagonistic
- FIC Index [3]: 2.00

SMILES: C(=N\Nc1ccccc1)/c1ccncc1 [AR48]
- MIC80 [1]: 16 µg/mL (≈ 81.1 µM)
- MIC80 ([2]; ATCC10231, read-out: MIC80 C. albicans ATCC No. 10231): 31 µg/mL (≈ 157 µM)
- FIC Fluc [3]: 3.87
- FIC Test [3]: 0.80
- Activity (interaction with fluconazole) [3]: Antagonistic
- FIC Index [3]: 4.67

Further lines, with some results ahead:

- MIC80 [1, 4]: 4 µg/mL (≈ 15.7 µM)
- MIC80 [2, 5]: 2 µg/mL (≈ 7.83 µM)
SMILES: Cc1ccc(O)c(/C=N/NC(=O)c2ccccn2)c1 [AR2, (E)-N′-(2-Hydroxy-5-methylbenzylidene)picolinohydrazide]
- FIC Fluc [3]: 1.00
- FIC Test [3]: 1.00
- Activity (interaction with fluconazole) [3]: Antagonistic
- FIC Index [3]: 2.00

- MIC80 [1, 4]: 8 µg/mL (≈ 23.8 µM)
- MIC80 [2, 5]: 16 µg/mL (≈ 47.6 µM)
SMILES: O=C(N/N=C/c1cc(Br)ccc1O)c1ccc[n+]([O-])c1 [AR27]
- FIC Fluc [3]: 0.92
- FIC Test [3]: 1.00
- Activity (interaction with fluconazole) [3]: Antagonistic
- FIC Index [3]: 1.92

- MIC80 [1, 4]: 16 µg/mL (≈ 81.1 µM)
- MIC80 [2, 5]: 16 µg/mL (≈ 81.1 µM)
SMILES: C(=N\Nc1ccccc1)/c1cccnc1 [AR44]
- FIC Fluc [3]: 1.00
- FIC Test [3]: 0.90
- Activity (interaction with fluconazole) [3]: Antagonistic
- FIC Index [3]: 1.90
